In patent publication US20250353891A1 (MEDIMMUNE LIMITED, priority 2022, published 2025):
Starred links: 1 amine or outer side, 2 acyl side, 3 side chain; linkers in the order of their positions; H or OH if unused. Non-standard residues stand in square brackets, D forms with d. Residues, ends and D or L forms follow the SMILES beside them. Groups on a side chain read outwards from the residue. *: point of attachment. Trp(5-Br) = N[C@@H](Cc1c[nH]c2ccc(Br)cc12)C(=O)O; C20 diacid = O=C(O)CCCCCCCCCCCCCCCCCCC(=O)*; C18 diacid = O=C(O)CCCCCCCCCCCCCCCCC(=O)*; γGlu = O=C(O)[C@H](CCC(=O)[*:2])N[*:1]; αMeF = C[C@](N)(Cc1ccccc1)C(=O)O; AEEA = NCCOCCOCC(=O)O; Aib = CC(C)(N)C(=O)O

Key:
[1] = target: human GLP-1 receptor (hGLP-1R) (Homo sapiens, UniProt P43220); experiment: cAMP production (HTRF) in CHO cells expressing hGLP-1R; format: cell-based; parameters: expressed in transfected cells; details: for EC50: Table 6, peptides modified at position 17, cAMP in CHO hGLP-1R cells, geometric mean, read-out: hGLP-1R EC50; for % Relative Potency Ratio: Table 6, % GLP-1R activity relative to GLP-1 / % GlucR activity relative to glucagon
human GLP-1 receptor (hGLP-1R), sequence (P43220 24-463): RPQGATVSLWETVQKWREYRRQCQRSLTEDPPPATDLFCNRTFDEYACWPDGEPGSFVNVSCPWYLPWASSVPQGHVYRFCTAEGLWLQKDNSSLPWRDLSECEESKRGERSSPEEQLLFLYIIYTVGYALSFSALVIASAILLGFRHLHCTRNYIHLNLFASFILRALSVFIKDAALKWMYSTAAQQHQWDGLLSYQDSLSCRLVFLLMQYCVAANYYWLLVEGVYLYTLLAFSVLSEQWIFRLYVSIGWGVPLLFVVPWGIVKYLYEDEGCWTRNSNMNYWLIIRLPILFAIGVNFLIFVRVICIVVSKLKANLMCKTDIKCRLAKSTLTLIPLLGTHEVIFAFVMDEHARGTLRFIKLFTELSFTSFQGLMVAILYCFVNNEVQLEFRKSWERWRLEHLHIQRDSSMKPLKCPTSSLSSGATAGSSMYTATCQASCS
In short: (§1)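 Read-out: HTRF cAMP (anti-cAMP cryptate donor, cAMP-d2 acceptor in conjugate/lysis buffer), converted to % Delta F and fitted by 4-parameter logistic for EC50. Cell densities were 1×10^5 cells/mL (hGLP-1R) or 2×10^5 cells/mL (hGCGR). Stimulation lasted 30 min at room temperature.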

[2] = target: human glucagon receptor (hGCGR) (Homo sapiens, UniProt P47871); experiment: cAMP production (HTRF) in CHO cells expressing hGCGR; format: cell-based; parameters: expressed in transfected cells; details: Table 6, peptides modified at position 17; cAMP in CHO hGCGR cells; geometric mean; read-out: hGluc-R EC50
human glucagon receptor (hGCGR), sequence (P47871 26-477): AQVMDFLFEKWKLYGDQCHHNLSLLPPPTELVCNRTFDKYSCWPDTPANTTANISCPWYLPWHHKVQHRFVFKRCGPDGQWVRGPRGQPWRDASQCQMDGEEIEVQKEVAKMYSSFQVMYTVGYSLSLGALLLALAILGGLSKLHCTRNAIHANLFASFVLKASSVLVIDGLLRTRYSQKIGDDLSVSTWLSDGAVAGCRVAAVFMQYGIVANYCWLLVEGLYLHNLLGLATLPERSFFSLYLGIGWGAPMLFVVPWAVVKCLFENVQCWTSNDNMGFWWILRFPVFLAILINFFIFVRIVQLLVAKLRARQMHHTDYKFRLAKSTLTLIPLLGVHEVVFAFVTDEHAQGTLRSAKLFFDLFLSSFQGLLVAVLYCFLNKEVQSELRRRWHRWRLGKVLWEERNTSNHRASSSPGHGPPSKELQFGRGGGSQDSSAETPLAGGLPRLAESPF
In short: as §1

| EC50 [1] | % Relative Potency Ratio [1] | EC50 [2] | Compound |
| --- | --- | --- | --- |
| 0.153 nM | 3.8 | 0.294 nM | CC(C)C[C@H](NC(=O)[C@H](Cc1c[nH]c2ccc(Br)cc12)NC(=O)[C@H](CCCNC(=N)N)NC(=O)[C@@H](NC(=O)[C@H](Cc1ccccc1)NC(=O)[C@H](CC(=O)O)NC(=O)[C@H](CCC(N)=O)NC(=O)[C@H](C)NC(=O)[C@H](CCCNC(=N)N)NC(=O)[C@H](CCCCNC(=O)COCCOCCNC(=O)COCCOCCNC(=O)CC[C@H](NC(=O)CCCCCCCCCCCCCCCCC(=O)O)C(=O)O)NC(=O)[C@H](CO)NC(=O)[C@H](CC(=O)O)NC(=O)[C@H](CC(C)C)NC(=O)[C@](C)(Cc1ccccc1)NC(=O)[C@H](CCCCN)NC(=O)[C@H](CO)NC(=O)[C@@H](NC(=O)[C@H](CC(=O)O)NC(=O)[C@H](CO)NC(=O)[C@@H](NC(=O)[C@H](Cc1ccccc1)NC(=O)[C@@H](NC(=O)CNC(=O)[C@H](CCC(N)=O)NC(=O)C(C)(C)NC(=O)[C@@H](N)Cc1c[nH]cn1)[C@@H](C)O)[C@@H](C)O)C(C)C)C(C)C)C(=O)N[C@@H](CC(C)C)C(=O)NC(C)(C)C(=O)N[C@@H](CCC(=O)O)C(=O)O [Peptide 434] (H-H[Aib]QGTFTSDVSK[αMeF]LDSK([AEEA-AEEA-γGlu-C18 diacid])RAQDFVR[Trp(5-Br)]LL[Aib]E-OH; N-terminus assumed) |
| 0.0227 nM | 21.0 | 0.24 nM | CC(C)C[C@H](NC(=O)[C@H](CC(C)C)NC(=O)C(C)(C)NC(=O)[C@H](CCC(N)=O)NC(=O)[C@@H](NC(=O)[C@H](Cc1ccccc1)NC(=O)[C@H](CC(=O)O)NC(=O)[C@H](CCCNC(=N)N)NC(=O)[C@H](C)NC(=O)[C@H](CCCNC(=N)N)NC(=O)[C@H](CCCCNC(=O)COCCOCCNC(=O)COCCOCCNC(=O)CC[C@H](NC(=O)CCCCCCCCCCCCCCCCC(=O)O)C(=O)O)NC(=O)[C@@H](NC(=O)[C@H](CC(=O)O)NC(=O)[C@H](CC(C)C)NC(=O)[C@](C)(Cc1ccccc1)NC(=O)[C@H](CCCCN)NC(=O)[C@H](CO)NC(=O)[C@@H](NC(=O)[C@H](CC(=O)O)NC(=O)[C@H](CO)NC(=O)[C@@H](NC(=O)[C@H](Cc1ccccc1)NC(=O)[C@@H](NC(=O)CNC(=O)[C@H](CCC(N)=O)NC(=O)C(C)(C)NC(=O)[C@@H](N)Cc1c[nH]cn1)[C@@H](C)O)[C@@H](C)O)C(C)C)[C@@H](C)O)C(C)C)C(=O)N[C@@H](CCC(=O)O)C(=O)NC(C)(C)C(=O)NCC(=O)O [Peptide 435] (H-H[Aib]QGTFTSDVSK[αMeF]LDTK([AEEA-AEEA-γGlu-C18 diacid])RARDFVQ[Aib]LLE[Aib]G-OH; N-terminus assumed) |
| 0.00743 nM | 18.3 | 0.0688 nM | CC(C)C[C@H](NC(=O)[C@H](Cc1c[nH]c2ccccc12)NC(=O)[C@H](CCCNC(=N)N)NC(=O)[C@@H](NC(=O)[C@H](Cc1ccccc1)NC(=O)[C@H](CC(=O)O)NC(=O)[C@H](CCC(N)=O)NC(=O)[C@H](C)NC(=O)[C@H](CCCNC(=N)N)NC(=O)[C@H](CCCCNC(=O)COCCOCCNC(=O)COCCOCCNC(=O)CC[C@H](NC(=O)CCCCCCCCCCCCCCCCC(=O)O)C(=O)O)NC(=O)[C@H](CCCNC(=N)N)NC(=O)[C@H](CC(=O)O)NC(=O)[C@H](CC(C)C)NC(=O)[C@](C)(Cc1ccccc1)NC(=O)[C@H](CCCCN)NC(=O)[C@H](CO)NC(=O)[C@@H](NC(=O)[C@H](CC(=O)O)NC(=O)[C@H](CO)NC(=O)[C@@H](NC(=O)[C@H](Cc1ccccc1)NC(=O)[C@@H](NC(=O)CNC(=O)[C@H](CCC(N)=O)NC(=O)C(C)(C)NC(=O)[C@@H](N)Cc1c[nH]cn1)[C@@H](C)O)[C@@H](C)O)C(C)C)C(C)C)C(=O)N[C@H](C(=O)NC(C)(C)C(=O)N[C@@H](CCC(=O)O)C(N)=O)C(C)C [Peptide 436] (H-H[Aib]QGTFTSDVSK[αMeF]LDRK([AEEA-AEEA-γGlu-C18 diacid])RAQDFVRWLV[Aib]E-NH2; N-terminus assumed) |
| 0.0269 nM | 7.1 | 0.0969 nM | CC(C)C[C@H](NC(=O)[C@H](Cc1c[nH]c2ccccc12)NC(=O)[C@H](CCCNC(=N)N)NC(=O)[C@@H](NC(=O)[C@H](Cc1ccccc1)NC(=O)[C@H](CC(=O)O)NC(=O)[C@H](CCC(N)=O)NC(=O)[C@H](C)NC(=O)[C@H](CCCNC(=N)N)NC(=O)[C@H](CCCCNC(=O)COCCOCCNC(=O)COCCOCCNC(=O)CC[C@H](NC(=O)CCCCCCCCCCCCCCCCCCC(=O)O)C(=O)O)NC(=O)[C@H](CCCNC(=N)N)NC(=O)[C@H](CC(=O)O)NC(=O)[C@H](CC(C)C)NC(=O)[C@](C)(Cc1ccccc1)NC(=O)[C@H](CCCCN)NC(=O)[C@H](CO)NC(=O)[C@@H](NC(=O)[C@H](CC(=O)O)NC(=O)[C@H](CO)NC(=O)[C@@H](NC(=O)[C@H](Cc1ccccc1)NC(=O)[C@@H](NC(=O)CNC(=O)[C@H](CCC(N)=O)NC(=O)C(C)(C)NC(=O)[C@@H](N)Cc1c[nH]cn1)[C@@H](C)O)[C@@H](C)O)C(C)C)C(C)C)C(=O)N[C@H](C(=O)NC(C)(C)C(=O)N[C@@H](CCC(=O)O)C(N)=O)C(C)C [Peptide 437] (H-H[Aib]QGTFTSDVSK[αMeF]LDRK([AEEA-AEEA-γGlu-C20 diacid])RAQDFVRWLV[Aib]E-NH2) |
| 0.0179 nM | 7.6 | 0.0689 nM | CC(C)C[C@H](NC(=O)[C@H](Cc1c[nH]c2ccccc12)NC(=O)[C@H](CCCNC(=N)N)NC(=O)[C@@H](NC(=O)[C@H](Cc1ccccc1)NC(=O)[C@H](CC(=O)O)NC(=O)[C@H](CCC(N)=O)NC(=O)[C@H](C)NC(=O)[C@H](CCCNC(=N)N)NC(=O)[C@H](CCCCNC(=O)COCCOCCNC(=O)COCCOCCNC(=O)CC[C@H](NC(=O)CCCCCCCCCCCCCCCCC(=O)O)C(=O)O)NC(=O)[C@H](CCCCN)NC(=O)[C@H](CC(=O)O)NC(=O)[C@H](CC(C)C)NC(=O)[C@](C)(Cc1ccccc1)NC(=O)[C@H](CCCCN)NC(=O)[C@H](CO)NC(=O)[C@@H](NC(=O)[C@H](CC(=O)O)NC(=O)[C@H](CO)NC(=O)[C@@H](NC(=O)[C@H](Cc1ccccc1)NC(=O)[C@@H](NC(=O)CNC(=O)[C@H](CCC(N)=O)NC(=O)C(C)(C)NC(=O)[C@@H](N)Cc1c[nH]cn1)[C@@H](C)O)[C@@H](C)O)C(C)C)C(C)C)C(=O)N[C@@H](CCC(=O)O)C(=O)N[C@@H](C)C(=O)NC(C)(C)C(=O)NCC(N)=O [Peptide 438] (H-H[Aib]QGTFTSDVSK[αMeF]LDKK([AEEA-AEEA-γGlu-C18 diacid])RAQDFVRWLEA[Aib]G-NH2; N-terminus assumed) |
| 0.0306 nM | 3.7 | 0.0577 nM | CC(C)C[C@H](NC(=O)[C@H](Cc1c[nH]c2ccccc12)NC(=O)[C@H](CCCNC(=N)N)NC(=O)[C@@H](NC(=O)[C@H](Cc1ccccc1)NC(=O)[C@H](CC(=O)O)NC(=O)[C@H](CCC(N)=O)NC(=O)[C@H](C)NC(=O)[C@H](CCCNC(=N)N)NC(=O)[C@H](CCCCNC(=O)COCCOCCNC(=O)COCCOCCNC(=O)CC[C@H](NC(=O)CCCCCCCCCCCCCCCCC(=O)O)C(=O)O)NC(=O)[C@H](CCCNC(=N)N)NC(=O)[C@H](CC(=O)O)NC(=O)[C@H](CC(C)C)NC(=O)[C@](C)(Cc1ccccc1)NC(=O)[C@H](CCCCN)NC(=O)[C@H](CO)NC(=O)[C@@H](NC(=O)[C@H](CC(=O)O)NC(=O)[C@H](CO)NC(=O)[C@@H](NC(=O)[C@H](Cc1ccccc1)NC(=O)[C@@H](NC(=O)CNC(=O)[C@H](CCC(N)=O)NC(=O)C(C)(C)NC(=O)[C@@H](N)Cc1c[nH]cn1)[C@@H](C)O)[C@@H](C)O)C(C)C)C(C)C)C(=O)N[C@@H](CC(C)C)C(=O)NC(C)(C)C(=O)N[C@@H](CCC(=O)O)C(N)=O [Peptide 439] (H-H[Aib]QGTFTSDVSK[αMeF]LDRK([AEEA-AEEA-γGlu-C18 diacid])RAQDFVRWLL[Aib]E-NH2; N-terminus assumed) |
| 0.154 nM | 1.0 | 0.081 nM | CC(C)C[C@H](NC(=O)[C@H](Cc1c[nH]c2ccccc12)NC(=O)[C@H](CCCNC(=N)N)NC(=O)[C@@H](NC(=O)[C@H](Cc1ccccc1)NC(=O)[C@H](CC(=O)O)NC(=O)[C@H](CCCNC(=N)N)NC(=O)[C@H](C)NC(=O)[C@H](CCCNC(=N)N)NC(=O)[C@H](CCCCNC(=O)COCCOCCNC(=O)COCCOCCNC(=O)CC[C@H](NC(=O)CCCCCCCCCCCCCCCCCCC(=O)O)C(=O)O)NC(=O)[C@H](CCCCN)NC(=O)[C@H](CC(=O)O)NC(=O)[C@H](CC(C)C)NC(=O)[C@](C)(Cc1ccccc1)NC(=O)[C@H](CCCCN)NC(=O)[C@H](CO)NC(=O)[C@@H](NC(=O)[C@H](CC(=O)O)NC(=O)[C@H](CO)NC(=O)[C@@H](NC(=O)[C@H](Cc1ccccc1)NC(=O)[C@@H](NC(=O)CNC(=O)[C@H](CCC(N)=O)NC(=O)C(C)(C)NC(=O)[C@@H](N)Cc1c[nH]cn1)[C@@H](C)O)[C@@H](C)O)C(C)C)C(C)C)C(=O)N[C@@H](CC(C)C)C(=O)NC(C)(C)C(=O)N[C@@H](CCC(=O)O)C(=O)O [Peptide 440] (H-H[Aib]QGTFTSDVSK[αMeF]LDKK([AEEA-AEEA-γGlu-C20 diacid])RARDFVRWLL[Aib]E-OH; N-terminus assumed) |
